Measurements taken from US4386103A, “Dichloroamino acid derivatives useful as potent germicidal and fungicidal agents” (Merck & Co., Inc., priority 1981, dated 1983).

Legend:
Type in all cases: cell-based
germs = experiment: Germicidal activity, lowest active concentration; settings: read-out: concentration at which germicidal activity is shown
Rhizopus oryzae = experiment: Contact fungicidal screen, Rhizopus oryzae; settings: 0.1M NaOAc pH 4.6
Protocol: (§1) The organisms used in the Contact Fungicidal Screen are a dermatophyte, trychophyton mentagrophytes, frequently associated with athlete's foot; a yeast, Candida albican, causative agent of thrush and vaginitis; a phycomycete, Rhizopus oryzae, commonly known as black bread mold; an ascomycete, Aspergillus fumagatis, found in chicken droppings and causing lung infections; and another dermatophyte, Microsporum canis, which causes ringworm. These organisms are maintained as stock cultures at 4° C. on agar slants of the following composition: dextrose 2%, Neopeptone (Difco) 1%, agar 2%. Fluid medium of the same nutrient composition (without agar) was used to test the viability of the organisms after exposure to the fungicide. This medium is also known as Sabouraud's medium.
[…]. The mycelial mat is removed from the surface of the agar using a sterile spatula. It is transferred to a heat sterilized glass tissue grinder and macerated with 25 ml of sterile physiological saline. The suspension is then filtered through sterile glass wool. The density of the sporangia spore suspension is determined by counting in a hemacytometer. The suspension is stored at 4° C. until it was used, at which time it was diluted with sterile physiological saline to a density of 5×10^6 spores per ml.
(§2) The compounds are weighed into heat sterilized 100 ml volumetric flasks and immediately before screening dissolved in 0.1 M NaOAc pH 4.6 buffer (test solutions).
(§3) The Aspergillus, Candida, Microsporum and Rhizopus species are screened in a slightly different manner. Basically, the procedure for the Contact Germicidal Efficiency Screen is utilized. After the test solutions are made up, 5 ml aliquots are pipetted into heat sterilized 25 ml glass stoppered erlenmeyer flasks. The screen is initiated when 0.5 ml of the 5×10^6 cell (spore) per ml suspension is added to the flask containing 5 ml of the test solution. At intervals of 0.5, 2.5, 5.0, 10.0 and 15.0 minutes, a 4 mm loopful of the inoculated test solution is subcultured into 7 mL of sterile fluid Sabouraud's medium and mixed on a vortex, the high dilution serving to stop the action of the compound. The subculture tubes are incubated at 25°-30° C. for ten days with daily observation for mycelial growth. The earliest subculture time at which no growth is present is considered the endpoint and is recorded as the sterilization time.
(§4) To insure the viability of the culture, a 0.5 ml aliquot of the 5×10^6 cells (spores) per ml suspension is transferred to 5 ml of the pH 4.6 buffer. A loopful of the inoculated buffer is then subcultured to 7 ml of fluid Sabouraud's medium and incubated at 25°-30° C. for ten days. To insure that the dilution of the test solution into the subculture medium does stop the action, a loopful of the test solution and a loopful of the inoculated buffer are transferred into the same subculture tube. This tube is also incubated at 25°-30° C. for ten days.

[1] = test system: Staphylococcus epidermidis; experiment: Contact germicidal screen, Staphylococcus epidermidis ATCC No. 12228
Protocol: The organisms used in the contact germicidal screen are all maintained as stock cultures on nutrient agar […] 4° C. They are transferred and biochemically diagnosed monthly. The five organisms used are: The media used are: […] Overnight cultures of the test organisms are grown in tryptose phosphate broth. After 15-16 hours, the cultures are centrifuged at […] for 15 minutes, and the supernatant replaced with fresh warm (37° C.) media. After two hours of incubation, the absorbance of the culture at 650 nm is determined and diluted with nutrient broth to 1×10^7 colony forming units per ml (using a previous determined standard curve: colony forming units/ml vs. absorbance at 650). The diluted cultures are maintained at 4°-8° C. throughout the screen. The compounds are weighed into sterile 100 ml volumetric flasks, and immediately before screening dissolved in one of the following buffers: 0.1 M NaOAc pH 4.6 or 0.1 M NaH2 PO4 pH 7.0. If solubility poses a problem, 10-30% methanol is used to effect solution. Two denaturing agents are also tested: […] Horse Serum restored with 100 ml distilled water and 10% Trition×100. When used, 2.5 ml of the denaturing agent is mixed with 2.5 ml of double strength test solution thirty minutes before the bacterial suspension is added. The screen is initiated when 0.2 ml of the bacterial suspension is added to 5.0 ml of the test solution contained in a sterile 25 ml glass stoppered flask. At intervals of 0.5, 2.5, 5.0, 10.0 and 15.0 minutes, a loopful of the inoculated test solution is subcultured into 5 ml of sterile nutrient broth and mixed with a vortex, the high dilution serving to stop the action of the compound. All of the subculture tubes are incubated at 37° C. and checked for signs of growth by turbidity at 1, 3, 5 and 7 days. The earliest subculture time at which no growth is present is considered the endpoint and is recorded as the sterilization time. An aliquot of 0.2 ml of the diluted culture is transferred to 5 ml of buffer to simulate 0.2 ml in 5 ml of test solution. (a) Purity: A loopful of the inoculated buffer is streaked onto nutrient agar to check colony morphology and lack of contaminants. (b) Viability: A loopful of the inoculated buffer is subcultured to 5 ml of nutrient broth as in the screen and incubated at 37° C. for 24 hours. (c) Dilution of the Test Solution: A loopful of the test solution is transferred to a 5 ml tube of nutrient broth, and a loopful of the inoculated buffer is transferred to the same tube of broth. […] (d) Purity of Organisms in the Test Solution: After the 15 minute subculture, a loopful of the inoculated test solution is streaked onto nutrient agar to insure that contamination has not occurred during the screen. (e) lack of Bactericidal Activity of Buffers and Other Solvents: Before a buffer or other solvent is used as a diluent, it is screened against the five organisms to insure that the buffer or solvent has no antibacterial activity itself.

Candida albican = experiment: Contact fungicidal screen, Candida albican; settings: 0.1M NaOAc pH 4.6
Protocol: as §1
The Candida albican is grown in Sabouraud's liquid medium at 25°-30° C. for three days. At the end of the incubation period the cell suspension is centrifuged at 200 G and washed with sterile physiological saline (0.85% NaCl). The density of the cell suspension is determined by counting in a hemacytometer. The suspension is stored a 4° C. until it is used, at which time it is diluted with sterile physiological saline to a density of 5×10^6 cells per ml.
as §2, §3, §4

Q: What does the source list for `CC(C)(CC(=O)O)N(Cl)Cl` [(II)]?
A: minimal effective concentration (germs): ≤ 5 µg/mL; Sterilization Time (Rhizopus oryzae; 10 PPM): 15 min; Sterilization Time (Rhizopus oryzae; 100 PPM): 15 min; Sterilization Time (Rhizopus oryzae; 1000 PPM): 10.0 min; Sterilization Time ([1]; 1.8 PPM, 0.1M NaOAc pH 4.6): 15 min; Sterilization Time ([1]; 4.5 PPM, 0.1M NaOAc pH 4.6): 10.0 min; Sterilization Time ([1]; 10.0+ PPM, 0.1M NaOAc pH 4.6, screened simultaneously with four other compounds): 2.5 min; Sterilization Time (summary) ([1]; 10 PPM, 0.1M NaOAc pH 4.6): 2.5 min; Sterilization Time ([1]; 10.0 PPM, 0.1M NaOAc pH 4.6): 5.0 min; Sterilization Time ([1]; 12.2 PPM, 0.1M NaOAc pH 4.6): 2.5 min; Sterilization Time ([1]; 32.1 PPM, 0.1M NaOAc pH 4.6): 2.5 min; Sterilization Time ([1]; 51.0 PPM, Triton X100 (10% solution):pH 4.6 buffer 1:1): 2.5 min; Sterilization Time ([1]; 51.0 PPM, horse serum:pH 4.6 buffer 1:1): 15 min; Sterilization Time ([1]; 71.7 PPM, 0.1M NaOAc pH 4.6): 0.5 min; Sterilization Time (summary) ([1]; 100 PPM, 0.1M NaOAc pH 4.6): 0.5 min; Sterilization Time ([1]; 104.7 PPM, 0.1M NaOAc pH 4.6): 0.5 min; Sterilization Time ([1]; 107.8 PPM, 0.1M NaH2PO4 pH 7.0): 15.0 min; Sterilization Time ([1]; 298.9 PPM, 0.1M NaOAc pH 4.6): 0.5 min; Sterilization Time (summary) ([1]; 300 PPM with 50% Horse Serum, 0.1M NaOAc pH 4.6): 15 min; Sterilization Time (summary) ([1]; 300 PPM with 50% Triton X100, 0.1M NaOAc pH 4.6): 0.5 min; Sterilization Time ([1]; 300 PPM, pH 4.6 buffer with 10% serum): 0.5 min; Sterilization Time ([1]; 300 PPM, pH 4.6 buffer with 20% serum): 2.5 min; Sterilization Time ([1]; 300 PPM, pH 4.6 buffer with 35% serum): 15.0 min; Sterilization Time ([1]; 304.6 PPM, horse serum:pH 4.6 buffer 1:1): 15 min; Sterilization Time ([1]; 304.8 PPM, Triton X100 (10% solution):pH 4.6 buffer 1:1): 0.5 min; Sterilization Time ([1]; 316.6 PPM, 0.1M NaH2PO4 pH 7.0): 10.0 min; Sterilization Time ([1]; 606.9 PPM, pH 4.6 buffer with 33% serum): 0.5 min; Sterilization Time ([1]; 899.25 PPM, pH 4.6 buffer with 25% serum): 0.5 min; Sterilization Time (summary) ([1]; 1000 PPM with 50% Horse Serum, 0.1M NaOAc pH 4.6): 0.5 min; Sterilization Time (summary) ([1]; 1000 PPM, 0.1M NaOAc pH 4.6): 0.5 min; Sterilization Time ([1]; 1001.2 PPM, horse serum:pH 4.6 buffer 1:1): 0.5 min; Sterilization Time ([1]; 1014.8 PPM, 0.1M NaOAc pH 4.6): 0.5 min; Sterilization Time ([1]; 1016.0 PPM, 0.1M NaH2PO4 pH 7.0): 2.5 min; Sterilization Time (Candida albican; 10 PPM): 15 min; Sterilization Time (Candida albican; 100 PPM): 15 min; Sterilization Time (Candida albican; 1000 PPM): 2.5 min
